Measurements as given in patent publication US20230053688A1, “METHODS TO ALTER LATENCY IN EBV+ MALIGNANCIES” (Cornell University, priority 2020, published 2023).
Like-named read-outs stand apart in the source and are kept apart here.

System: LMP1 expression in Kem I cells
Assay: microbe, parasite or virus in culture
Assay type: cell-based, EBV
Conditions: for fold induction at 2.5 µM: human gammaherpesvirus 4, 48 h
[1] = read-out: Average LMP1 Fold Increase, Kem I cells, dose 2.5 uM, 48 hours, LMP1 transcript by in-well qRT-PCR, average of the two replicates
[2] = read-out: Replicate 1-LMP1 Fold Increase, Kem I cells, dose 2.5 uM, 48 hours, LMP1 transcript by in-well qRT-PCR, screen replicate 1
[3] = read-out: Replicate 2-LMP1 Fold Increase, Kem I cells, dose 2.5 uM, 48 hours, LMP1 transcript by in-well qRT-PCR, screen replicate 2
[4] = Kem I cells, dose 2.5 uM, 48 hours, LMP1 transcript by in-well qRT-PCR, average of the two replicates
[5] = Kem I cells, dose 2.5 uM, 48 hours, LMP1 transcript by in-well qRT-PCR, screen replicate 1
[6] = Kem I cells, dose 2.5 uM, 48 hours, LMP1 transcript by in-well qRT-PCR, screen replicate 2
[7] = Kem I cells, 2.5 uM, 48 hours, average of replicates 1 and 2
[8] = Kem I cells, 2.5 uM, 48 hours, fold change in LMP1 transcript vs vehicle

Row | Molecule | Average LMP1 Fold Increase [4] [fold] | Replicate 1-LMP1 Fold Increase [5] [fold] | Replicate 2-LMP1 Fold Increase [6] [fold] | further results
1 | O=C(O[C@H]1C[C@H]2CC[C@@H](C1)[N+]21CCCC1)C(O)(c1ccccc1)c1ccccc1 [Trospium chloride] | – | – | – | fold induction at 2.5 µM [1]: 0.35; fold induction at 2.5 µM [2]: 0.33; fold induction at 2.5 µM [3]: 0.37
2 | CC(C)(C)c1cc(/C=C(\C#N)C(N)=S)cc(C(C)(C)C)c1O [Tyrphostin AG 879] | 0.74 | 0.53 | 0.95 | –
3 | CCO.N#CC(=C(/N)Sc1ccccc1N)/C(C#N)=C(\N)Sc1ccccc1N [U0126-EtOH] | – | – | – | Average LMP1 Fold Increase: 0.58 fold; Replicate 1-LMP1 Fold Increase: 0.51 fold; Replicate 2-LMP1 Fold Increase: 0.65 fold
4 | O=C(c1cncc(Br)c1)N1CCC(N2CCCC2)CC1 [UNC669] | 0.50 | 0.75 | 0.25 | –
5 | CCCCNc1ncc(-c2ccc(CN3CCOCC3)cn2)c(NC2CCC(O)CC2)n1 (stereo not drawn) [UNC2250] | 0.41 | 0.54 | 0.29 | –
6 | NC(=O)c1cccc(-c2cccc(OC(=O)NC3CCCCC3)c2)c1 [URB597] | – | – | – | fold induction at 2.5 µM [1]: 0.54; fold induction at 2.5 µM [2]: 0.52; fold induction at 2.5 µM [3]: 0.55
7 | CS(=O)(=O)c1ccc(-c2cnc(N)c(C(=O)Nc3ccccc3)n2)cc1 [VE-821] | – | – | – | fold induction at 2.5 µM [1]: 0.17; fold induction at 2.5 µM [2]: 0.2; fold induction at 2.5 µM [3]: 0.14
8 | CNCc1ccc(-c2cc(-c3nc(-c4ccc(S(=O)(=O)C(C)C)cc4)cnc3N)on2)cc1 [VE-822] | – | – | – | fold induction at 2.5 µM [1]: 4.03; fold induction at 2.5 µM [2]: 3.28; fold induction at 2.5 µM [3]: 4.78
9 | Cc1cc(Nc2cc(N3CCN(C)CC3)nc(Sc3ccc(NC(=O)C4CC4)cc3)n2)n[nH]1 [VX-680 (Tozasertib, MK-0457)] | 0.74 | 0.96 | 0.52 | –
10 | O=c1ncn2nc(Sc3ccc(F)cc3F)ccc2c1-c1c(Cl)cccc1Cl [VX-745] | – | – | – | fold induction at 2.5 µM [1]: 0.49; fold induction at 2.5 µM [2]: 0.75; fold induction at 2.5 µM [3]: 0.24
11 | CCO[C@@H]1OC(=O)C[C@@H]1NC(=O)[C@@H]1CCCN1C(=O)[C@@H](NC(=O)c1ccc(N)c(Cl)c1)C(C)(C)C [VX-765] | – | – | – | fold induction at 2.5 µM [1]: 0.41; fold induction at 2.5 µM [2]: 0.45; fold induction at 2.5 µM [3]: 0.37
12 | Cc1ccc(NC(=O)C2(c3ccc4c(c3)OC(F)(F)O4)CC2)nc1-c1cccc(C(=O)O)c1 [VX-809 (Lumacaftor)] | 0.87 | 0.55 | 1.18 | –
13 | COc1cc2/c(=N/c3ccc(Br)cc3F)nc[nH]c2cc1OCC1CCN(C)CC1 [Vandetanib (ZD6474)] | 1.14 | 0.81 | 1.47 | –
14 | CCc1c(C(=O)C(N)=O)c2c(OCC(=O)O)cccc2n1Cc1ccccc1 [Varespladib (LY315920)] | 0.52 | 0.35 | 0.69 | –
15 | C[C@]1(c2nc3c(C(N)=O)cccc3[nH]2)CCCN1 [Veliparib (ABT-888)] | 1.08 | 0.71 | 1.45 | –
16 | CCCS(=O)(=O)Nc1ccc(F)c(C(=O)c2c[nH]c3ncc(-c4ccc(Cl)cc4)cc23)c1F [Vemurafenib (PLX4032, RG7204)] | 0.41 | 0.33 | 0.50 | –
17 | N#C[C@@H]1CCCN1C(=O)CNC12CC3CC(CC(O)(C3)C1)C2 [Vildagliptin (LAF-237)] | 0.72 | 0.58 | 0.87 | –
18 | C[C@@H](c1ncncc1F)[C@](O)(Cn1cncn1)c1ccc(F)cc1F [Voriconazole] | – | – | – | fold induction at 2.5 µM [1]: 1.48; fold induction at 2.5 µM [2]: 1.02; fold induction at 2.5 µM [3]: 1.94
19 | c1ccc(NCc2ccc(CNc3ccccn3)cc2)nc1 [WZ811] | 0.08 | 0.08 | 0.08 | –

Row | Molecule | Average LMP1 Fold Increase [4] [fold] | Replicate 1-LMP1 Fold Increase [5] [fold] | Replicate 2-LMP1 Fold Increase [6] [fold] | further results
20 | C=CC(=O)Nc1cccc(Oc2nc(Nc3ccc(N4CCN(C)CC4)cc3OC)ncc2Cl)c1 [WZ4002] | 0.90 | 0.58 | 1.23 | –
21 | CCC(=O)Nc1cccc(Oc2nc(Nc3ccc(N4CCN(C)CC4)cc3OC)ncc2Cl)c1 [WZ4003] | 0.72 | 0.79 | 0.64 | –
22 | Cc1cc(-c2ccc(CC(=O)Nc3ccc(-c4cccnc4)cc3)cc2)ccn1 [Wnt-C59 (C59)] | 0.98 | 0.60 | 1.35 | –
23 | Oc1nc(-c2ccc(C(F)(F)F)cc2)nc2c1CSCC2 [XAV-939] | – | – | – | fold induction at 2.5 µM [1]: 0.73; fold induction at 2.5 µM [2]: 0.73; fold induction at 2.5 µM [3]: 0.73
24 | CC(C)OC(=O)C1=CN(C(=O)c2ccc(F)c(F)c2)CC(C)(C)c2c1[nH]c1ccccc21 [XL335] | – | – | – | fold induction at 2.5 µM [1]: 0.27; fold induction at 2.5 µM [2]: 0.39; fold induction at 2.5 µM [3]: 0.14
25 | COCC[n+]1c2c(n(Cc3cnccn3)c1C)C(=O)c1ccccc1C2=O.[Br-] [YM155 (Sepantronium Bromide)] | 0.00 | 0.00 | 0.00 | –
26 | C[C@H](NC(=O)Cc1cc(F)cc(F)c1)C(=O)N[C@@H]1C(=O)N(C)c2ccccc2-c2ccccc21 [YO-01027] | 0.35 | 0.44 | 0.27 | –
27 | Cc1cc(C)nc(NS(=O)(=O)c2ccc(NC(=S)NC(=O)COc3ccc(Br)cc3Cl)cc2)n1 [ZCL278] | 0.85 | 1.26 | 0.44 | –
28 | COc1cc2ncnc(Nc3ccc(Cl)cc3F)c2cc1OC [ZM 306416] | 0.85 | 0.70 | 1.00 | –
29 | COc1cc2c(Nc3ccc(NC(=O)c4ccccc4)cc3)ncnc2cc1OCCCN1CCOCC1 [ZM 447439] | 0.37 | 0.34 | 0.40 | –
30 | O=c1ncccn1[C@@H]1O[C@H](CO)[C@@H](O)[C@H]1O [Zebularine] | – | – | – | fold induction at 2.5 µM [1]: 0.52; fold induction at 2.5 µM [2]: 0.24; fold induction at 2.5 µM [3]: 0.79
31 | COc1nc(C)cnc1NS(=O)(=O)c1cccnc1-c1ccc(-c2nnco2)cc1 [Zibotentan (ZD4054)] | 0.77 | 0.57 | 0.97 | –
32 | Cl.Cl.Cl.O[C@@H](COc1cccc2ncccc12)CN1CCN([C@@H]2c3ccccc3[C@@H]3[C@H](c4ccccc42)C3(F)F)CC1 [Zosuquidar (LY335979) 3HCl] | 0.79 | 0.64 | 0.94 | –
33 | (−)-MK 801 Maleate | – | – | – | Average LMP1 Fold Increase [7]: 0.88; Replicate 1-LMP1 Fold Increase [8]: 0.94; Replicate 2-LMP1 Fold Increase [8]: 0.81
34 | BAM7 | – | – | – | Average LMP1 Fold Increase [7]: 0.93; Replicate 1-LMP1 Fold Increase [8]: 0.51; Replicate 2-LMP1 Fold Increase [8]: 1.35
35 | CHIR-98014 | – | – | – | Average LMP1 Fold Increase: 0.67; Replicate 1-LMP1 Fold Increase: 0.81; Replicate 2-LMP1 Fold Increase: 0.54
36 | HA14-1 | – | – | – | Average LMP1 Fold Increase [7]: 0.73; Replicate 1-LMP1 Fold Increase [8]: 0.62; Replicate 2-LMP1 Fold Increase [8]: 0.83
37 | I-BET151 (GSK1210151A) | – | – | – | Average LMP1 Fold Increase [7]: 1.39; Replicate 1-LMP1 Fold Increase [8]: 1.41; Replicate 2-LMP1 Fold Increase [8]: 1.38
38 | Ifenprodil Tartrate | – | – | – | Average LMP1 Fold Increase [7]: 0.96; Replicate 1-LMP1 Fold Increase [8]: 0.58; Replicate 2-LMP1 Fold Increase [8]: 1.35
